Tests used:
[1] = 100 kPa, Liquid; for viscosity: Concentric cylinders viscometry; for mass density: Vibrating tube method
[2] = xn = mol fraction of the nth substance listed; settings: 100 kPa, Liquid, x1 = 1; for viscosity: Concentric cylinders viscometry; for mass density: Vibrating tube method

CCCCn1cc[n+](C)c1.[Cl-] [1-butyl-3-methylimidazolium chloride]
[1]
Settings	mass density [kg/m3]	viscosity [mPa·s]
348.15 K	1053.9	217
353.15 K	1051.2	162.1
358.15 K	1048.5	123.3
363.15 K	1045.9	95.6
368.15 K	1043.3	75.39
373.15 K	1040.8	60.26

CCCCn1cc[n+](C)c1.[Cl-] [1-butyl-3-methylimidazolium chloride] + CCCC[n+]1ccn(C)c1.O=S(=O)([N-]S(=O)(=O)C(F)(F)F)C(F)(F)F
[2]
Settings	mass density [kg/m3]	viscosity [mPa·s]
348.15 K	1053.9	217
353.15 K	1051.2	162.1
358.15 K	1048.5	123.3
363.15 K	1045.9	95.6
368.15 K	1043.3	75.39
373.15 K	1040.8	60.26

— the NIST ThermoML archive (doi:10.1016/j.jct.2016.12.037)
